Results taken from ChEMBL document CHEMBL1138776, “Identification and characterization of small molecule inhibitors of the calcium-dependent S100B-p53 tumor suppressor interaction” (J Med Chem, 2004).

What was measured:
[1] = target: T1, Protein S100-B (Homo sapiens, UniProt P04271); assay: Binding to holo-S100B protein
T1 sequence (P04271 whole entry): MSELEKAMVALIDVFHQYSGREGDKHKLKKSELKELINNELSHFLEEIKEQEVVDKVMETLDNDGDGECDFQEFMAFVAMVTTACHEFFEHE

[2] = Concentration required for 50% growth inhibition of primary malignant melanoma C8146A cell lines; type: functional, cell-based

Row | Structure (SMILES) | Kd [1] [µM] | IC50 [2] [µM]
1 | N=C(N)NC(=N)Nc1cccc(Cl)c1Cl | 2 | 8
2 | Cc1cc(C)c(N2C(=O)c3ccc(C(=O)Nc4cc(C(=O)O)cc(C(=O)O)c4)cc3C2=O)c(C)c1 | 120 | 44
3 | CC(C)(C)NC(=O)c1cccc(N2C(=O)c3ccc(C(=O)O)cc3C2=O)c1 | 8.1 | > 100
4 | N=C(N)NC(=N)Nc1ccc(Cl)cc1C(=O)c1ccccc1 | 4.5 | 12
5 | Cc1c(NS(=O)(=O)c2ccc(NC(=O)CCC(=O)O)cc2)c(=O)n(-c2ccccc2)n1C | 4.5 | > 100
6 | O=C(O)c1cc(N/N=C/c2ccc(-c3ccc(Cl)c(C(=O)O)c3)o2)ccc1Cl | 18.3 | 49
7 | N=C(N)c1ccc(OCCCCCOc2ccc(C(=N)N)cc2)cc1 [PENTAMIDINE] | 1 | 1.2
